Data: patent US11174260B2, “Compounds and methods for the treatment of parasitic diseases” (THE BROAD INSTITUTE, INC., priority 2017, dated 2021)

Experiments:
P. falciparum Dd2 = assay: In vitro P. falciparum blood-stage culture and assay; type: cell-based; settings: Plasmodium falciparum, DD2, 72 h, 72 h incubation, SYBR Green I readout, read-out: Pf Dd2
Protocol: Strains of P. falciparum (Dd2, 3D7, D6, K1, NF54, V1/3, HB3, 7G8, FCB and TM90C2B) were obtained from the Malaria Research and Reference Reagent Resource Center (MR4). P. falciparum isolates were maintained with O-positive human blood in an atmosphere of 93% N2, 4% CO2, 3% O2 at 37° C. in complete culturing medium (10.4 g/L RPMI 1640, 5.94 g/L HEPES, 5 g/L albumax II, 50 mg/L hypoxanthine, 2.1 g/L sodium bicarbonate, 10% human serum and 43 mg/L gentamicin). Parasites were cultured in medium until parasitaemia reached 3-8%. Parasitaemia was determined by checking at least 500 red blood cells from a Giemsa-stained blood smear. For the compound screening, a parasite dilution at 2.0% parasitaemia and 2.0% haematocrit was created with medium. 25 μl of medium was dispensed into 384-well black, clear-bottom plates and 100 nl of each compound in DMSO was transferred into assay plates along with the control compound (mefloquine). Next, 25 μl of the parasite suspension in medium was dispensed into the assay plates giving a final parasitaemia of 1% and a final haematocrit of 1%. The assay plates were incubated for 72 h at 37° C. 10 μl of detection reagent consisting of 10×SYBR Green I (Invitrogen; supplied in 10,000× concentration) in lysis buffer (20 mM Tris-HCl, 5 mM EDTA, 0.16% (w/v) Saponin, 1.6% (v/v) Triton X-100) was dispensed into the assay plates. For optimal staining, the assay plates were left at room temperature for 24 h in the dark. The assay plates were read with 505 dichroic mirrors with 485 nm excitation and 530 nm emission settings in an Envision (PerkinElmer).

C. parvum = C. parvum in vitro EC50 assay; type: cell-based; settings: Cryptosporidium parvum; C. parvum oocysts in HCT-8 cells
Protocol: Human ileocecal adenocarcinoma (HCT-8) cells were obtained from ATCC and maintained in T-75 tissue culture flasks with RPMI 1640 medium with HEPES, sodium pyruvate (1 mM), and L-glutamine (ATCC) supplemented with 10% horse serum (ATCC) and 120 U/ml penicillin and 120 μg/ml streptomycin. Cells were plated into 384-well, tissue culture-treated, black-walled, clearbottom microwell plates (BD Falcon) at a density of 8,850 cells/well and allowed to grow to confluence. They were then inoculated with 5.5×10^3 primed C. parvum oocysts (Bunchgrass Farms, Deary, Id.) suspended in inoculation medium (RPMI 1640 without horse serum). Oocysts were primed for excystation by following a previously described protocol (J. Eukaryot. Microbiol. 46:56S-57S). Briefly, oocysts were treated for 10 min with 10 mM HCl at 37° C., centrifuged, and treated with a 2 mM solution of sodium taurocholate (Sigma-Aldrich) in phosphate-buffered saline (PBS) with Ca^2+ and Mg^2+. The suspension was incubated for 10 min at 16° C. and then diluted in inoculation medium and added to each well. Infected cells were incubated at 37° C. for 3 h, at which point an equal volume of growth medium containing 20% horse serum (total serum concentration of 10%). Compounds were diluted and assayed at fixed doses of 0.12, 0.37, 1.1, 3.3, and 10 μM (each concentration, n=14) for the generation of EC50 curves. In the case of final EC50 curves, three wells were left uninfected but treated with each of the corresponding concentrations of the compound to assess for background staining. All curves were generated using the log[inhibitor] versus response_variable slope equation in GraphPad Prism (equation 3), with the bottom constraint set equal to 0.

Row | EC50 (P. falciparum Dd2) [nM] | EC50 (C. parvum) [nM] | SMILES
1 | 50 to 250 | 6 | COc1ccc(NC(=O)N2C[C@@H](O)[C@@H](O)CN3C[C@H](c4ccc(C#Cc5ccccc5)cc4)[C@@H]3C2)cc1 [Example E36, (3S,4R,8R,9S)-3,4-dihydroxy-N-(4-methoxyphenyl)-9-[4-(2-phenylethynyl)phenyl]-1,6-diazabicyclo[6.2.0]decane-6-carboxamide]
2 | < 50 | 134 | COc1ccc(NC(=O)N2CCC(CN(C)C)CN3[C@H](CO)[C@H](c4ccc(C#Cc5ccccc5)cc4)[C@@H]3C2)cc1 (stereo partly drawn) [Example E27, (8R,9R,10S)-3-[(dimethylamino)methyl]-10-(hydroxymethyl)-N-(4-methoxyphenyl)-9-[4-(2-phenylethynyl)phenyl]-1,6-diazabicyclo[6.2.0]decane-6-carboxamide]
3 | < 50 | 68 | COc1ccc(NC(=O)N2C/C=C\CN3[C@H](CN(C)C)[C@H](c4ccc(C#Cc5ccccc5)cc4)[C@@H]3C2)cc1 [Example E4, (3Z,8R,9S,10S)-10-[(dimethylamino)methyl]-N-(4-methoxyphenyl)-9-[4-(2-phenylethynyl)phenyl]-1,6-diazabicyclo[6.2.0]dec-3-ene-6-carboxamide]
4 | < 50 | 33 | COc1ccc(NC(=O)N2CC[C@H](O)CN3[C@H](CN(C)C)[C@H](c4ccc(C#Cc5ccccc5)cc4)[C@@H]3C2)cc1 [Example E15, (3S,8R,9S,10S)-10-[(dimethylamino)methyl]-3-hydroxy-N-(4-methoxyphenyl)-9-[4-(2-phenylethynyl)phenyl]-1,6-diazabicyclo[6.2.0]decane-6-carboxamide]
5 | < 50 | 98 | COc1ccc(NC(=O)N2CCC(CO)CN3[C@H](CN(C)C)[C@H](c4ccc(C#Cc5ccccc5)cc4)[C@@H]3C2)cc1 (stereo partly drawn) [Example E26, (8R,9S,10S)-10-[(dimethylamino)methyl]-3-(hydroxymethyl)-N-(4-methoxyphenyl)-9-[4-(2-phenylethynyl)phenyl]-1,6-diazabicyclo[6.2.0]decane-6-carboxamide]
6 | < 50 | 95 | COc1ccc(NC(=O)N2C[C@H](O)[C@H](O)CN3[C@H](CN(C)C)[C@H](c4ccc(C#Cc5ccccc5)cc4)[C@@H]3C2)cc1 [Example E6, (3R,4S,8R,9S,10S)-10-((dimethylamino)methyl)-3,4-dihydroxy-N-(4-methoxyphenyl)-9-(4-(phenylethynyl)phenyl)-1,6-diazabicyclo[6.2.0]decane-6-carboxamide]
7 | 50 to 250 |  | COc1ccc(NC(=O)N2C[C@H](O)[C@H](O)CN3C[C@H](c4ccc(C#Cc5ccccc5)cc4)[C@@H]3C2)cc1 [Example E37, (3R,4S,8R,9S)-3,4-dihydroxy-N-(4-methoxyphenyl)-9-[4-(2-phenylethynyl)phenyl]-1,6-diazabicyclo[6.2.0]decane-6-carboxamide]
8 | < 50 |  | COc1ccc(NC(=O)N2CCCC(C)N3[C@H](CO)[C@H](c4ccc(C#Cc5ccccc5)cc4)[C@@H]3C2)cc1 (stereo partly drawn) [Example E35, (8R,9R,10S)-10-(hydroxymethyl)-N-(4-methoxyphenyl)-2-methyl-9-[4-(2-phenylethynyl)phenyl]-1,6-diazabicyclo[6.2.0]decane-6-carboxamide]
9 | < 50 |  | CCN(CC)C[C@@H]1[C@H](c2ccc(C#Cc3ccccc3)cc2)[C@@H]2CN(C(=O)Nc3ccc(OC)cc3)C[C@@H](O)[C@@H](O)CN12 [Example E9, (3S,4R,8R,9S,10S)-10-(diethylaminomethyl)-3,4-dihydroxy-N-(4-methoxyphenyl)-9-[4-(2-phenylethynyl)phenyl]-1,6-diazabicyclo[6.2.0]decane-6-carboxamide]
10 | < 50 |  | COc1ccc(NC(=O)N2CC(CO)CCN3[C@H](CN(C)C)[C@H](c4ccc(C#Cc5ccccc5)cc4)[C@@H]3C2)cc1 (stereo partly drawn) [Example E33, (8R,9S,10S)-10-[(dimethylamino)methyl]-4-(hydroxymethyl)-N-(4-methoxyphenyl)-9-[4-(2-phenylethynyl)phenyl]-1,6-diazabicyclo[6.2.0]decane-6-carboxamide]
11 | 50 to 250 |  | COc1ccc(NC(=O)N2CC[C@H](N(C)C)CN3[C@H](CO)[C@H](c4ccc(C#Cc5ccccc5)cc4)[C@@H]3C2)cc1 [Example E29, (3S,8R,9R,10S)-3-(dimethylamino)-10-(hydroxymethyl)-N-(4-methoxyphenyl)-9-(4-(phenylethynyl)phenyl)-1,6-diazabicyclo[6.2.0]decane-6-carboxamide]
